Measured values from patent publication US11013706B2, “Non-pharmaceutical bactericidal composition against Helicobacter pylori” (ECO-GEO BIO-TECHNOLOGY COMPANY LIMITED., priority 2019, dated 2021).

What was measured:
[1] = test system: Helicobacter pylori strain 26695 (ATCC700392); experiment: Embodiment 1: antibacterial experiment against Helicobacter pylori, citrate and phosphate buffer combinations with or without ascorbic acid (viable count); format: cell-based
[2] = test system: Helicobacter pylori strain 26695 (ATCC700392); experiment: Embodiment 4: antibacterial experiment against Helicobacter pylori, malate, lactate, citrate and phosphate buffer combinations with ascorbic acid (viable count); format: cell-based
Protocol: The bacteria strain used in the experiment was Helicobacter pylori strain 26695 (ATCC700392), and the bacteria were subcultured on Brucella solid medium (Brucella broth 28 g/L, Agar 15 g/L and 10% (v/v) Horse serum, pH 7.0). After the bacteria were seeded by streaking method, they were cultured in a humidified anaerobic chamber at 37° C. for 72 hours using a microaerobic bag (Genbox microaer, BioMerieux, 96125). […] Brucella broth containing 10 mg/mL of NaHCO3 was added to the Helicobacter pylori subcultured for 72 hours, bacterial concentration was adjusted to 10^7-10^8 CFU/mL as a bacterial solution, the bacterial solution was mixed with each culture solution in a 1:1 ratio, and the mixture was incubated at 37° C. in a humidified anaerobic chamber using a micro-aerobic bag (Genbox microaer, BioMerieux, 96125). […] The malate buffer combination and the lactate buffer combination were prepared by mixing malic acid and sodium malate, and lactic acid and sodium lactate, respectively, in the same way. The phosphate buffer solutions were prepared by mixing KH2PO4 and Na2HPO4 in different ratios according to their pH values, and the unmodulable portion was prepared by HCl and NaOH to reach a constant pH value. The pH of the pure medium was adjusted with HCl and NaOH. […] Finally, the viable count of each culture medium was calculated.

Compound: O=C1O[C@H]([C@@H](O)CO)C(O)=C1O [ascorbic acid, L-Ascorbic acid]
- effect of the ascorbic acid on the sterilization of the citrate buffer combination ([1]; comparing C3 with C3V3000, and C4 with C4V3000): synergistic effect
- effect of the ascorbic acid added to the phosphate buffer combination or water ([1]; presence of bicarbonate, Embodiment 1): neither the bactericidal effect nor the synergistic effect
- effect of the ascorbic acid on the sterilization effect of the citrate or the malate buffer combination ([2]; comparing Embodiment 3 and Embodiment 4): synergistic effect
- effect of the ascorbic acid added to the phosphate buffer combination or water ([2]; presence of bicarbonate, Embodiments 3 and 4): neither bactericidal effect nor synergistic effect
